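Step 1: Grow cells in 96-well plates. Step 2: Expose to compound for 48 hours at 5 concentrations. Step 3: Interpolate endpoints linearly; if unreached, use highest concentration. Abbreviation: GI50, concentration required for 50% inhibition of growth. Definition used: TGI = concentration required for complete inhibition of growth.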
How the values were obtained:
Experiment in all cases: growth of human tumour cells (NCI), 48 h
SK-OV-3 ovarian = test system: SK-OV-3 ovarian
RXF 393 renal = test system: RXF 393 renal
TK-10 renal = test system: TK-10 renal
IGROV1 ovarian = test system: IGROV1 ovarian
HCT-116 colon = test system: HCT-116 colon
SW-620 colon = test system: SW-620 colon
OVCAR-3 ovarian = test system: OVCAR-3 ovarian
SK-MEL-28 melanoma = test system: SK-MEL-28 melanoma
MOLT-4 leukemia = test system: MOLT-4 leukemia
NCI-H460 lung = test system: NCI-H460 lung

Row | SMILES | GI50 (SK-OV-3 ovarian) [µM] | TGI (SK-OV-3 ovarian) [µM] | GI50 (RXF 393 renal) [µM] | TGI (RXF 393 renal) [µM] | GI50 (TK-10 renal) [µM] | TGI (TK-10 renal) [µM] | GI50 (IGROV1 ovarian) [µM] | TGI (IGROV1 ovarian) [µM] | GI50 (HCT-116 colon) [µM] | TGI (HCT-116 colon) [µM] | GI50 (SW-620 colon) [µM] | TGI (SW-620 colon) [µM] | GI50 (OVCAR-3 ovarian) [µM] | TGI (OVCAR-3 ovarian) [µM] | GI50 (SK-MEL-28 melanoma) [µM] | TGI (SK-MEL-28 melanoma) [µM] | GI50 (MOLT-4 leukemia) [µM] | TGI (MOLT-4 leukemia) [µM] | GI50 (NCI-H460 lung) [µM] | TGI (NCI-H460 lung) [µM]
1 | CO/N=C(/COc1c(-c2ccccc2)oc2ccccc2c1=O)c1ccc(OC)cc1 | > 100 | > 100 | > 100 | > 100 | > 100 | > 100 | > 100 | > 100 | > 100 | > 100 | > 100 | > 100 | > 100 | > 100 | > 100 | > 100 | – | – | – | –
2 | O=C(O)C[O][Sb][O]CC(=O)O | – | – | > 100 | > 100 | > 100 | > 100 | > 100 | > 100 | > 100 | > 100 | > 100 | > 100 | > 100 | > 100 | > 100 | > 100 | > 100 | > 100 | > 100 | > 100
3 | CC(C)(C)OC(=O)NC1CCC[C@H]1O (stereo partly specified) | – | > 100 | – | > 100 | – | > 100 | – | – | – | > 100 | – | > 100 | – | > 100 | – | > 100 | – | > 100 | – | > 100
4 | CC(=O)Nc1ccccc1-c1cnc2ccccc2n1 | – | > 100 | – | – | – | > 100 | – | > 100 | – | > 100 | – | > 100 | – | > 100 | – | > 100 | – | > 100 | – | > 100
5 | NC(CSc1nc2ccccn2c1[N+](=O)[O-])C(=O)O (stereo unspecified) | – | > 100 | – | > 100 | – | > 100 | – | > 100 | – | > 100 | – | > 100 | – | > 100 | – | > 100 | – | – | – | > 100
6 | COc1cc(C(=O)C/C(CCC(=O)Nc2ccc(Cl)cc2Cl)=N/NC(=O)C(N)=O)ccc1O | – | > 100 | – | – | – | > 100 | – | > 100 | – | > 100 | – | > 100 | – | > 100 | – | > 100 | – | > 100 | – | > 100
7 | COc1cc2c(c(OC)c1OC)-c1ccc(SC)c(=O)cc1[C@@H](NCc1cccc(C#N)c1)CC2 | < 0.0075 | – | – | – | 16.2 | > 75 | < 0.0075 | > 75 | < 0.0075 | – | < 0.0075 | > 75 | – | 0.0493 | – | – | < 0.0075 | 69.2 | – | 8.97
8 | Cc1ccc(C2(O)CC(c3ccc([N+](=O)[O-])o3)=NN2C(=O)COc2ccccc2Cl)cc1 (stereo unspecified) | – | > 100 | – | – | – | > 86.1 | – | > 100 | – | > 87.4 | – | 72.3 | – | 19.9 | – | 45 | – | 96.1 | – | > 31.6
9 | O=C(CC(=O)Nc1ccccc1O)Nc1ccccc1O | – | > 100 | – | – | – | > 100 | – | > 100 | – | 27.5 | – | 17.1 | – | 46 | – | 27.4 | – | > 100 | – | 66.3
10 | CCOC(=O)C(Cc1ccccc1)NC(=O)OC(C)(C)C (stereo unspecified) | – | > 100 | – | – | – | > 100 | – | > 100 | – | > 100 | – | > 100 | – | > 100 | – | > 100 | – | > 100 | – | > 100
11 | COc1cc(/C=C/c2ccc(OC(C)=O)cc2)cc(OC)c1OC | – | – | – | 39.2 | – | > 100 | – | > 100 | – | > 100 | – | > 100 | – | 68.2 | – | > 100 | – | 75.7 | – | 91.6
12 | Cc1ccc2c(Nc3cccc(Cl)c3F)ncc(NC(=O)c3csc4c(N)ncnc34)c2c1 | > 100 | > 100 | > 100 | > 100 | > 100 | > 100 | 0.605 | > 100 | 0.0961 | > 100 | 1.21 | > 100 | > 100 | > 100 | – | – | > 100 | > 100 | > 100 | > 100
13 | O=Cc1ccc(Oc2c3ccccc3nc3occc23)cc1 | 21.6 | 57 | 2.32 | 9.17 | 3.83 | 21 | 24.6 | > 100 | 15.3 | 28.7 | – | – | 2.59 | 11.3 | 17.9 | 34.3 | 6.89 | 24.4 | 20.2 | 48.2
14 | N#CCN1CCOCCOCCN(CC#N)CCOCCOCC1 | – | – | – | > 100 | – | > 100 | – | > 100 | – | > 100 | – | > 100 | – | > 100 | – | > 100 | – | > 100 | – | > 100
15 | O=C1c2cc3c(cc2[C@@H]2[C@H]1c1ccc([N+](=O)[O-])cc1C(=O)N2CCCCl)OCO3 | < 0.027 | – | < 0.01 | 10.1 | 0.0868 | – | < 0.01 | > 100 | < 0.01 | 15.7 | < 0.01 | > 100 | 0.073 | 0.456 | – | – | > 100 | > 100 | < 0.01 | 13.6
16 | Cc1c(C(=O)/C=C/c2ccccc2Cl)[n+](=O)c2ccccc2n1[O-] | – | 35.7 | – | – | – | – | – | 31.6 | – | 22.5 | – | 24 | – | 29.4 | – | 31.6 | – | 42 | – | 24.4
17 | Cc1ncc(C(=O)Nc2ccc(CN3CCN(C)CC3)c(C(F)(F)F)c2)cc1C#Cc1cnc(N)c2ncccc12 | 0.341 | 7.2 | 0.0984 | 1.49 | 0.318 | 2.13 | – | – | 0.218 | 2.4 | 0.208 | 2.9 | 1.32 | 4.96 | 0.056 | 1.49 | 0.0946 | – | 0.0869 | 2.15
18 | Cc1ccc(NC(=O)CC/C(CC(=O)c2ccc(F)cc2)=N\NC(=O)C(=O)NN)cc1C | – | > 100 | – | > 100 | – | > 100 | – | > 100 | – | > 100 | – | > 100 | – | > 100 | – | > 100 | – | – | – | > 100
19 | C[C@]12CCC3c4ccc(O)cc4CCC3C1Cc1ccc(O)cc12 (stereo partly specified) | 14.3 | 36.4 | – | – | 13.6 | 40.2 | 9.72 | 26.1 | 3.52 | 13.2 | 3.7 | 14.9 | 5.71 | 26.5 | 8.72 | 22.7 | – | 0.478 | 4.88 | 18.2
20 | CC[C@H](C)[C@H](NC(=O)Nc1ccccc1)C(=O)N(C)[C@H](C[C@@H](OC(C)=O)c1nc(C(=O)N[C@@H](Cc2ccccc2)C[C@H](C)C(=O)OC)cs1)C(C)C | 5.13 | > 100 | 1.95 | 7.25 | 9.56 | > 100 | 3.28 | > 100 | 3.33 | > 100 | 3.58 | > 100 | 2.32 | 5.96 | > 100 | > 100 | – | – | 2.83 | > 100
21 | Cc1ccccc1NC(=O)C1C(=O)N(c2ccccc2C)C(=O)/C1=N\N (stereo unspecified) | – | > 100 | – | > 100 | – | – | – | > 100 | – | > 100 | – | > 100 | – | > 100 | – | > 100 | – | > 100 | – | > 100
22 | COc1cc2ccnc(-c3c4ccccc4c(N)c4c(OC)c(OC)ccc34)c2cc1OC | – | 20.4 | – | 6.87 | – | 22.2 | – | 14.5 | – | – | – | 13.1 | – | – | – | 6.92 | – | 9.53 | – | 6.53
23 | ICCC(c1ccccc1)(c1ccccc1)c1ccccc1 | 14.7 | 27.8 | 8.9 | 22.8 | 14 | 30.7 | 4.17 | 16.6 | 2.55 | 13.5 | – | – | 3.85 | 15 | 3.4 | 12.5 | 2.57 | 8.97 | – | –
24 | O=C(OCC1OC(OC(=O)c2cc(O)c(O)c(OC(=O)c3cc(O)c(O)c(O)c3)c2)C(OC(=O)c2cc(O)c(O)c(OC(=O)c3cc(O)c(O)c(O)c3)c2)C(OC(=O)c2cc(O)c(O)c(OC(=O)c3cc(O)c(O)c(O)c3)c2)C1OC(=O)c1cc(O)c(O)c(OC(=O)c2cc(O)c(O)c(O)c2)c1)c1cc(O)c(O)c(OC(=O)c2cc(O)c(O)c(O)c2)c1 (stereo unspecified) | 17.3 | > 50 | 30.3 | > 50 | 7.46 | 28.2 | – | – | 21.9 | > 50 | 21.6 | > 50 | 9.99 | 31.2 | > 50 | > 50 | 41.3 | > 50 | 4.14 | 36
25 | Nc1ccc2c(c1)CC1c3ccccc3C(C2)c2ccccc21 | – | > 100 | – | > 100 | – | > 100 | – | > 100 | – | > 100 | – | > 100 | – | – | – | – | – | > 100 | – | > 100
26 | CC1=C(C(=O)CC(=O)C(=O)Nc2ccccc2)Sc2ccccc2N1 | – | > 100 | – | > 100 | – | – | – | > 100 | – | > 100 | – | > 100 | – | > 100 | – | > 100 | – | > 100 | – | > 100
